Assay results as given in patent US12269793B2, “Affinity illudofulvene conjugates” (AF Chemicals, LLC, priority 2019, dated 2025).
Read-outs that look alike come from different tables or passages of the source. Where a SMILES comes first, the peptide text is derived from it. [ ]: non-standard residue; d: D form. The star is where a group is joined. X4 = CC1=C(C*)C2=C(C)C3(CC3)[C@@](C)(O)C(=O)C2=C1

Key:
Experiment in all cases: cells
[1] = tested on: MV522 Target Cell Line (lung-derived adenocarcinoma); details: MV522, 48 h, read-out: Mean IC50 value
[2] = tested on: MV522 Target Cell Line (lung-derived adenocarcinoma); details: MV522, 2 h, read-out: Mean IC50 value
[3] = tested on: 8392B Nontarget Cell Line (hematopoietic); details: 2 h
[4] = read-out: Mean IC50 value, 8392B Nontarget Cell Line, 2 hr exposure, ± SD, N = 3 unless otherwise indicated

SMILES	IC50 [1]	IC50 [2]	IC50 [3, 4]	IC50 ([3]; read-out: Mean IC50 value)
CC1=C(Br)C2=C(C)C3(CC3)[C@@](C)(O)C(=O)C2=C1 [Analog 004]	0.6 µM	–	–	–
CC1=C(CC2CC(C=O)CC(C=O)C2O)C2=C(C)C3(CC3)[C@@](C)(O)C(=O)C2=C1 (stereo partly shown) [Analog 013]	–	5.1 ± 0.7 µM	–	–
CC1=C2C(=C[C@@]3(C)COCO[C@@H]23)C(=O)[C@](C)(O)C12CC2 [Analog 014]	–	0.115 ± 0.03 µM	9.65 ± 0.2 µM	–
CC(=O)O[C@@]1(C)C(=O)C2=CC(C)=C(CO)C2=C(C)C12CC2 [Analog 015]	0.48 ± 0.11 µM	–	0.81 ± 0.26 µM	–
CC1=C(COCC2=C(C)C=C3C(=O)[C@](C)(O)C4(CC4)C(C)=C32)C2=C(C)C3(CC3)[C@@](C)(O)C(=O)C2=C1 [Analog 017]	0.32 ± 0.06 µM	–	14.7 ± 0.9 µM	–
CC1=C(CO[C@@H]2O[C@@H](CO)[C@H](O)[C@@H](O)[C@@H]2O)C2=C(C)C3(CC3)[C@@](C)(O)C(=O)C2=C1 [Analog 018]	–	8.8 ± 2.9 µM	–	–
CC1=C(COCC(O)CO)C2=C(C)C3(CC3)[C@@](C)(O)C(=O)C2=C1 (stereo partly shown) [Analog 019]	0.66 ± 0.08 µM	0.47 ± 0.06 µM	> 75 µM	–
COC(C)(C)OCC1=C(C)C=C2C(=O)[C@](C)(O)C3(CC3)C(C)=C21 [Analog 021]	0.93 ± 0.25 µM	–	34.4 ± 9.4 µM	–
CC1=C(COCCO)C2=C(C)C3(CC3)[C@@](C)(O)C(=O)C2=C1 [Analog 022]	–	–	31.7 ± 1.4 µM	–
CC1=C(CSc2ccc(O)cc2)C2=C(C)C3(CC3)[C@@](C)(O)C(=O)C2=C1 [Analog 023]	2.75 ± 0.5 µM	2.9 ± 1.14 µM	> 138 µM	–
CC1=C(CSCc2ccccc2)C2=C(C)C3(CC3)[C@@](C)(O)C(=O)C2=C1 [Analog 024]	–	–	12.8 ± 2.1 µM	–
COC(=O)CSCC1=C(C)C=C2C(=O)[C@](C)(O)C3(CC3)C(C)=C21 [Analog 025]	–	–	> 25 µM	–
COC(=O)CSCC1=C(C)C(SCC(=O)OC)=C2C(=O)[C@](C)(O)C3(CC3)C(C)=C12 [Analog 030]	> 3 µM	–	–	–
COC(=O)CSCC1=C(C)C(SCC(=O)OC)C2(O)C(=O)[C@](C)(O)C3(CC3)C(C)=C12 (stereo partly shown) [Analog 031]	> 3 µM	–	–	–
CC1=C(CSCC(O)CO)C2=C(C)C3(CC3)[C@@](C)(O)C(=O)C2=C1 (stereo partly shown) [Analog 032]	–	0.6 ± 0.19 µM	> 30 µM	–
CC1=C2C=CC=C2C(=O)C2(OCCO2)C12CC2 [Analog 033]	4.6 ± 0.2 µM	–	29.9 ± 3.3 µM	–
CC(=O)OCC1=C(C)C=C2C(=O)[C@](C)(O)C3(CC3)C(C)=C21 [Analog 034]	0.49 ± 0.04 µM	–	> 100 µM	–
CC1=C2C=CC=C2C(=O)C(O)C12CC2 (stereo not shown) [Analog 035]	–	5.6 ± 0.6 µM	> 150 µM	–
CC1=C(CSCC(N)C(=O)O)C2=C(C)C3(CC3)[C@@](C)(O)C(=O)C2=C1 (stereo partly shown) [Analog 037]	29.2 ± 2.3 µM	–	> 85 µM	–
CC1=C(CCC(=O)O)C2=C(C)C3(CC3)[C@@](C)(O)C(=O)C2=C1 [Analog 038]	–	0.75 ± 0.06 µM	24.9 ± 8 µM	–
COC(CCC1=C(C)C=C2C(=O)[C@](C)(O)C3(CC3)C(C)=C21)OC [Analog 039]	0.6 ± 0.04 µM	–	24.6 ± 2.4 µM	–
CC1=C2C=CC=C2[C@@H](O)C2(OCCO2)C12CC2 [Analog 060]	–	19.4 ± 1.8 µM	–	27.6 ± 3 µM
CC1=C2C=C(CO)C=C2C(=O)[C@](C)(O)C12CC2 [Analog 062]	0.66 ± 0.2 µM	–	37.1 ± 2.3 µM	–
CC1=C2C(=CC(CO)=C2CO)C(=O)[C@](C)(O)C12CC2 [Analog 063]	0.58 ± 0.25 µM	–	–	–
CC(=O)N[C@@H](CSCC1=CC=C2C(=O)[C@](C)(O)C3(CC3)C(C)=C12)C(=O)N[C@@H](C)c1ccccc1 [Analog 065]	–	6.2 ± 1.1 µM	–	–

SMILES	IC50 [1]	IC50 [2]	IC50 [3, 4]	IC50 ([3]; read-out: Mean IC50 value)
CC(=O)OCC1=CC2=C(C)C3(CC3)[C@@](C)(O)C(=O)C2=C1 [Analog 075]	–	19.6 ± 9.7 µM	62 ± 3.6 µM	–
CC(=O)OCC1=C(COC(C)=O)C2=C(C)C3(CC3)[C@@](C)(O)C(=O)C2=C1 [Analog 076]	–	–	39.5 ± 7.2 µM	–
CC(=O)OCC1=C(CO)C2=C(C)C3(CC3)[C@@](C)(O)C(=O)C2=C1 [Analog 077]	–	9.2 ± 1.2 µM	–	–
CC(=O)OCC1=C(CO)C=C2C(=O)[C@](C)(O)C3(CC3)C(C)=C21 [Analog 078]	–	20.4 ± 6.3 µM	> 100 µM	–
COCC1=CC2=C(C)C3(CC3)[C@@](C)(O)C(=O)C2=C1 [Analog 079]	–	–	> 100 µM	–
COCC1=C(C)C=C2C(=O)[C@](C)(O)C3(CC3)C(C)=C21 [Analog 080]	–	8.8 ± 2.4 µM	> 100 µM	–
COCC1=C(CO)C=C2C(=O)[C@](C)(O)C3(CC3)C(C)=C21 [Analog 081]	–	> 80 µM	> 80 µM	–
COCC1=C(COC)C2=C(C)C3(CC3)[C@@](C)(O)C(=O)C2=C1 [Analog 082]	–	50.6 ± 7.1 µM	> 100 µM	–
CC(=O)N[C@@H](CSCC1=C(C)C=C2C(=O)[C@](C)(O)C3(CC3)C(C)=C21)C(=O)N[C@@H](CC(C)C)C(=O)N[C@@H](CC(C)C)C(=O)N[C@@H](C=O)Cc1ccccc1 [Analog 085] (Ac-C(X4)LL[dF]-aldehyde)	> 40 µM	> 40 µM	–	–
CC1=C(CSCC[C@H](N)C(=O)O)C2=C(C)C3(CC3)[C@@](C)(O)C(=O)C2=C1 [Analog 097]	–	–	> 82 µM	–
CC1=C2C(=O)[C@](C)(CO)C=C2C(=O)[C@](C)(O)C12CC2 [Analog 099]	–	8.4 ± 1.1 µM	4 ± 0.4 µM	–
CC1=C(CSC[C@H](N)C(=O)N[C@@H](CC(N)=O)C(=O)NCC(=O)N[C@@H](CCCNC(=N)N)C(=O)N[C@@H](CS)C(=O)O)C2=C(C)C3(CC3)[C@@](C)(O)C(=O)C2=C1 [Analog 102] (H-C(X4)NGRC-OH)	–	> 13 µM	–	–
CC1=C2C(=CC3=C2COCOC3)C(=O)[C@](C)(O)C12CC2 [Analog 104]	–	–	36.4 ± 6.5 µM	–
CC1=C2C(=CC(C)(C)[C@@H]2OC(=O)CCCC(=O)O)C(=O)[C@](C)(O)C12CC2 [Analog 106]	–	5.2 ± 1 µM	> 83 µM	–
CC1=C2C(=CC(C)(C)[C@@H]2OC(=O)CCCC(=O)Oc2ccc3c(c2)CCC2C3CC[C@]3(C)C(=O)CCC23)C(=O)[C@](C)(O)C12CC2 (stereo partly shown) [Analog 107]	–	> 50 µM	–	> 50 µM
CC1=C2C(=CC(C)(C)[C@@H]2OC(=O)CCCC(=O)Oc2ccc3c(c2)CCC2C3CC[C@]3(C)C(O)CCC23)C(=O)[C@](C)(O)C12CC2 (stereo partly shown) [Analog 109]	–	> 50 µM	–	> 50 µM
CC1=C(COC(C)(C)C)C2=C(C)C3(CC3)[C@@](C)(O)C(=O)C2=C1 [Analog 116]	–	0.4 ± 0.1 µM	7 ± 0.4 µM	–
CC1=C2C(=C[C@@](C)(COC(=O)c3cc([N+](=O)[O-])cc([N+](=O)[O-])c3)C2OC(=O)CCCC(=O)O)C(=O)[C@](C)(O)C12CC2 (stereo partly shown) [Analog 118]	–	–	24.5 ± 4.5 µM	–
CC1=C(CCC=NNC(N)=O)C2=C(C)C3(CC3)[C@@](C)(O)C(=O)C2=C1 [Analog 121]	–	–	15.2 ± 6 µM	–
CC1=C(CCC=NNc2ccccc2)C2=C(C)C3(CC3)[C@@](C)(O)C(=O)C2=C1 [Analog 122]	–	–	14.5 ± 1.2 µM	–
CC1=C(CCC=NNS(=O)(=O)c2ccc(C)cc2)C2=C(C)C3(CC3)[C@@](C)(O)C(=O)C2=C1 [Analog 123]	0.6 ± 0.06 µM	–	–	–
CC(=O)ON=CCCC1=C(C)C=C2C(=O)[C@](C)(O)C3(CC3)C(C)=C21 [Analog 124]	0.87 ± 0.35 µM	–	> 30 µM	–
CC1=C(C=NO)C2=C(C)C3(CC3)[C@@](C)(O)C(=O)C2=C1 [Analog 126]	–	–	> 30 µM	–
CC1=C(CCC(O)C#N)C2=C(C)C3(CC3)[C@@](C)(O)C(=O)C2=C1 (stereo partly shown) [Analog 127]	–	0.87 ± 0.03 µM	> 30 µM	–
